{"source": "ChEMBL document CHEMBL1129576", "about": "“Nucleosides and nucleotides. 158. 1-(3-C-ethynyl-beta-D-ribo-pentofuranosyl)-cytosine, 1-(3-C-ethynyl-beta-D-ribo-pentofuranosyl)uracil, and their nucleobase analogues as new potential multifunctional antitumor nucleosides with a broad spectrum of activity” (J Med Chem, 1996)", "key": {"[1]": {"tested_on": "Mus musculus", "test": "In vivo inhibitory activity against AZ-521 tumor xenograft of stomach in nude mice at a concentration of 2 mg/kg for 10 days", "assay_type": "functional"}, "[2]": {"tested_on": "KB", "test": "In vitro tumor cell growth inhibitory activity against human nasopharyngeal KB cell lines", "assay_type": "functional, cell-based"}, "[3]": {"tested_on": "ST-KM-1", "test": "In vitro tumor cell growth inhibitory activity against Human stomach (adenocarcinoma) cell linesST-KM", "assay_type": "functional, cell-based"}, "[4]": {"tested_on": "NCI-H82 (Homo sapiens)", "test": "In vitro tumor cell growth inhibitory activity against Human lung small-cell carcinoma cellc) NCI-H-82"}, "[5]": {"tested_on": "NUGC-4", "test": "In vitro tumor cell growth inhibitory activity of Human stomach (adenocarcinoma) cell lines. NUGC-4", "assay_type": "functional, cell-based"}, "[6]": {"tested_on": "A-431", "test": "In vitro tumor cell growth inhibitory activity against Human […] A431 cell lines", "assay_type": "functional, cell-based"}, "[7]": {"tested_on": "A-375", "test": "In vitro tumor cell growth inhibitory activity against Human melanoma cell lines. A375", "assay_type": "functional, cell-based"}, "[8]": {"tested_on": "Mus musculus", "test": "In vivo inhibitory activity against Hucc-T1 cells tumor xenograft of bile duct in nude mice at a concentration of 2 mg/kg for 10 days", "assay_type": "functional"}, "[9]": {"tested_on": "Mus musculus", "test": "In vivo inhibitory activity against H-31 cells tumor xenograft of breast in nude mice at a concentration of 2 mg/kg for 10 days", "assay_type": "functional"}, "[10]": {"tested_on": "YMB-1-E", "test": "In vitro tumor cell growth inhibitory activity against Human breast (adenocarcinoma) cell lines YMB-1-E.", "assay_type": "functional, cell-based"}, "[11]": {"tested_on": "MKN-28", "test": "In vitro tumor cell growth inhibitory activity against Human stomach (adenocarcinoma) cell lines. MKN-28", "assay_type": "functional, cell-based"}, "[12]": {"tested_on": "KB", "test": "In vitro tumor cell growth inhibitory activity against Human melanoma cell lines. KB", "assay_type": "functional, cell-based"}, "[13]": {"tested_on": "QG-90", "test": "In vitro tumor cell growth inhibitory activity against Human lung small-cell carcinoma cell lines. QG-90", "assay_type": "functional, cell-based"}, "[14]": {"tested_on": "QG-56", "test": "In vitro tumor cell growth inhibitory activity against Human lung squamous-cell carcinoma cell linesQG-56", "assay_type": "functional, cell-based"}, "[15]": {"tested_on": "Mus musculus", "test": "In vivo inhibitory activity against CO-3 tumor xenograft of […] in nude mice at a concentration of 2 mg/kg for 10 days", "assay_type": "functional"}, "[16]": {"tested_on": "Mus musculus", "test": "In vivo inhibitory activity against KM12C tumor xenograft of […] in nude mice at a concentration of 2 mg/kg for 10 days", "assay_type": "functional"}, "[17]": {"tested_on": "NAKAJIMA", "test": "In vitro tumor cell growth inhibitory activity against Human stomach (adenocarcinoma) cell lines. h) NAKAJIMA", "assay_type": "functional, cell-based"}, "[18]": {"tested_on": "Mus musculus", "test": "In vivo inhibitory activity against PAN-12 tumor xenograft of pancreas in nude mice at a concentration of 2 mg/kg for 10 days", "assay_type": "functional"}, "[19]": {"tested_on": "PANC-1", "test": "In vitro tumor cell growth inhibitory activity against Human pancreas (adenocarcinoma) cell lines. PANC-1", "assay_type": "functional, cell-based"}, "[20]": {"tested_on": "KATO III stomach cancer cell line", "test": "In vitro tumor cell growth inhibitory activity of Human stomach (adenocarcinoma) cell lines. KATO-III", "assay_type": "functional, cell-based"}, "[21]": {"tested_on": "SW480", "test": "In vitro tumor cell growth inhibitory activity against Human colon (adenocarcinoma) cell lines. SW-480", "assay_type": "functional, cell-based"}, "[22]": {"tested_on": "Mus musculus", "test": "In vivo inhibitory activity against NUGC-3 tumor xenograft of stomach in nude mice at a concentration of 2 mg/kg for 10 days", "assay_type": "functional"}, "[23]": {"tested_on": "SW48", "test": "In vitro tumor cell growth inhibitory activity against Human colon (adenocarcinoma) cell lines. SW-48", "assay_type": "functional, cell-based"}, "[24]": {"tested_on": "PC-9", "test": "In vitro tumor cell growth inhibitory activity against Human lung (adenocarcinoma) cell lines PC-9", "assay_type": "functional, cell-based"}, "[25]": {"tested_on": "SK-MEL-28", "test": "In vitro tumor cell growth inhibitory activity against Human melanoma cell lines. SK-MEL-28", "assay_type": "functional, cell-based"}, "[26]": {"test": "In vitro tumor cell growth inhibitory activity against Human stomach (adenocarcinoma) cell lines STSA-1"}, "[27]": {"tested_on": "PC10", "test": "In vitro tumor cell growth inhibitory activity against Human lung (adenocarcinoma) cell lines PC-10", "assay_type": "functional, cell-based"}, "[28]": {"tested_on": "MKN-45 (Homo sapiens)", "test": "In vitro tumor cell growth inhibitory activity against Human stomach (adenocarcinoma) cell lines. MKN-45"}, "[29]": {"tested_on": "HOS", "test": "In vitro tumor cell growth inhibitory activity against Human osteosarcoma cell lines. HOS", "assay_type": "functional, cell-based"}, "[30]": {"tested_on": "MG-63", "test": "In vitro tumor cell growth inhibitory activity against Human osteosarcoma cell lines MG-63.", "assay_type": "functional, cell-based"}, "[31]": {"test": "In vitro tumor cell growth inhibitory activity against Human lung squamous-cell carcinoma cell lines QG-95", "assay_type": "functional"}, "[32]": {"tested_on": "Mus musculus", "test": "In vivo inhibitory activity against DLD-1 tumor xenograft of […] in nude mice at a concentration of 2 mg/kg for 10 days", "assay_type": "functional"}, "[33]": {"tested_on": "L1210", "test": "In vitro tumor cell growth inhibitory activity against mouse leukemia L1210 cell lines.", "assay_type": "functional, cell-based"}, "[34]": {"tested_on": "NCI-H417", "test": "In vitro tumor cell growth inhibitory activity against Human lung small-cell carcinoma cell NCI-H-417", "assay_type": "functional, cell-based"}, "[35]": {"tested_on": "MIA PaCa-2 (Homo sapiens)", "test": "In vitro tumor cell growth inhibitory activity against Human pancreas (adenocarcinoma) cell Mia-PaCa-2"}, "[36]": {"tested_on": "HCT-15", "test": "In vitro tumor cell growth inhibitory activity against HCT-15", "assay_type": "functional, cell-based", "conditions": "Homo sapiens"}, "[37]": {"tested_on": "PC-8", "test": "In vitro tumor cell growth inhibitory activity against Human lung (adenocarcinoma) cell lines. PC-8", "assay_type": "functional, cell-based"}, "[38]": {"tested_on": "fLS", "test": "In vitro tumor cell growth inhibitory activity of Human stomach (adenocarcinoma) cell lines. fLS", "assay_type": "functional, cell-based"}, "[39]": {"tested_on": "MDA-MB-231", "test": "In vitro tumor cell growth inhibitory activity against Human breast (adenocarcinoma) cell lines. […]", "assay_type": "functional, cell-based"}, "[40]": {"tested_on": "HT-1080", "test": "In vitro tumor cell growth inhibitory activity against Human fibrosarcoma HT1080 cell lines.", "assay_type": "functional, cell-based"}, "[41]": {"tested_on": "Mus musculus", "test": "In vivo inhibitory activity against BxPC-3 tumor xenograft of pancreas in nude mice at a concentration of 2 mg/kg for 10 days", "assay_type": "functional"}, "[42]": {"tested_on": "Mus musculus", "test": "In vivo inhibitory activity against H-81 tumor xenograft of stomach in nude mice at a concentration of 2 mg/kg for 10 days", "assay_type": "functional"}, "[43]": {"tested_on": "QG-96", "test": "In vitro tumor cell growth inhibitory activity against Human lung small-cell carcinoma cellb) QG-96", "assay_type": "functional, cell-based"}, "[44]": {"tested_on": "T-24", "test": "In vitro tumor cell growth inhibitory activity against Human bladder carcinoma cell lines. T24", "assay_type": "functional, cell-based"}, "[45]": {"tested_on": "KK-47 cell line", "test": "In vitro tumor cell growth inhibitory activity against Human bladder carcinoma cell lines. kK-47", "assay_type": "functional, cell-based"}, "[46]": {"tested_on": "Mus musculus", "test": "In vivo inhibitory activity against JRC-11 cell tumor xenograft of renal in nude mice at a concentration of 2 mg/kg for 10 days", "assay_type": "functional"}, "[47]": {"tested_on": "Lu-65", "test": "In vitro tumor cell growth inhibitory activity against Human lung large-cell carcinoma Lu-65 cell lines.", "assay_type": "functional, cell-based"}, "[48]": {"tested_on": "MCF7", "test": "In vitro tumor cell growth inhibitory activity against Human breast (adenocarcinoma) cell lines. MCF-7", "assay_type": "functional, cell-based"}}, "data": [{"smiles": "C#C[C@]1(O)[C@@H](CO)O[C@@H](n2ccc(=O)[nH]c2=O)[C@@H]1O", "values": [{"measurement": "Inhibition ratio", "setting": "[1]", "value": 81, "unit": "%"}, {"measurement": "IC50", "setting": "[2]", "value": 0.029, "unit": "µM"}, {"measurement": "IC50", "setting": "[3]", "value": 0.086, "unit": "µM"}, {"measurement": "IC50", "setting": "[4]", "value": 0.23, "unit": "µM"}, {"measurement": "IC50", "setting": "[5]", "value": 0.22, "unit": "µM"}, {"measurement": "IC50", "setting": "[6]", "value": 0.29, "unit": "µM"}, {"measurement": "IC50", "setting": "[7]", "value": 0.021, "unit": "µM"}, {"measurement": "Inhibition ratio", "setting": "[8]", "value": 64, "unit": "%"}, {"measurement": "Inhibition ratio", "setting": "[9]", "value": 82, "unit": "%"}, {"measurement": "IC50", "setting": "[10]", "value": "> 1.9", "unit": "µM"}, {"measurement": "IC50", "setting": "[11]", "value": 0.065, "unit": "µM"}, {"measurement": "IC50", "setting": "[12]", "value": 0.029, "unit": "µM"}, {"measurement": "IC50", "setting": "[13]", "value": 1, "unit": "µM"}, {"measurement": "IC50", "setting": "[14]", "value": 0.15, "unit": "µM"}, {"measurement": "Inhibition ratio", "setting": "[15]", "value": 90, "unit": "%"}, {"measurement": "Inhibition ratio", "setting": "[16]", "value": 81, "unit": "%"}, {"measurement": "IC50", "setting": "[17]", "value": 0.78, "unit": "µM"}, {"measurement": "Inhibition ratio", "setting": "[18]", "value": 81, "unit": "%"}, {"measurement": "IC50", "setting": "[19]", "value": "> 1.9", "unit": "µM"}, {"measurement": "IC50", "setting": "[20]", "value": 0.031, "unit": "µM"}, {"measurement": "IC50", "setting": "[21]", "value": 0.34, "unit": "µM"}, {"measurement": "Inhibition ratio", "setting": "[22]", "value": 54, "unit": "%"}, {"measurement": "IC50", "setting": "[23]", "value": "> 1.9", "unit": "µM"}, {"measurement": "IC50", "setting": "[24]", "value": 0.19, "unit": "µM"}, {"measurement": "IC50", "setting": "[25]", "value": 0.086, "unit": "µM"}, {"measurement": "IC50", "setting": "[26]", "value": 1.9, "unit": "µM"}, {"measurement": "IC50", "setting": "[27]", "value": "> 1.9", "unit": "µM"}, {"measurement": "IC50", "setting": "[28]", "value": 0.052, "unit": "µM"}, {"measurement": "IC50", "setting": "[29]", "value": 1.8, "unit": "µM"}, {"measurement": "IC50", "setting": "[30]", "value": "> 1.9", "unit": "µM"}, {"measurement": "IC50", "setting": "[31]", "value": 0.28, "unit": "µM"}, {"measurement": "Inhibition ratio", "setting": "[32]", "value": 73, "unit": "%"}, {"measurement": "IC50", "setting": "[33]", "value": 0.13, "unit": "µM"}, {"measurement": "IC50", "setting": "[34]", "value": 0.11, "unit": "µM"}, {"measurement": "IC50", "setting": "[35]", "value": 0.054, "unit": "µM"}, {"measurement": "IC50", "setting": "[36]", "value": 0.075, "unit": "µM"}, {"measurement": "IC50", "setting": "[37]", "value": 0.33, "unit": "µM"}, {"measurement": "IC50", "setting": "[38]", "value": 0.23, "unit": "µM"}, {"measurement": "IC50", "setting": "[39]", "value": "> 1.9", "unit": "µM"}, {"measurement": "IC50", "setting": "[40]", "value": 0.16, "unit": "µM"}, {"measurement": "Inhibition ratio", "setting": "[41]", "value": 35, "unit": "%"}, {"measurement": "Inhibition ratio", "setting": "[42]", "value": 92, "unit": "%"}, {"measurement": "IC50", "setting": "[43]", "value": 0.38, "unit": "µM"}, {"measurement": "IC50", "setting": "[44]", "value": 0.21, "unit": "µM"}, {"measurement": "IC50", "setting": "[45]", "value": 0.089, "unit": "µM"}, {"measurement": "Inhibition ratio", "setting": "[46]", "value": 75, "unit": "%"}, {"measurement": "IC50", "setting": "[47]", "value": 0.089, "unit": "µM"}, {"measurement": "IC50", "setting": "[48]", "value": 0.2, "unit": "µM"}]}]}
